Assay [1] addresses Tlp11-LBD. Kind of assay: Microscale thermophoresis (MST) of Tlp11-LBD. In kind it is binding, C. jejuni ATCC 33560. The settings on record: for Kd: 250 nM protein. The method, then:
The His-tag dye (MO-L018 RED-tris-NTA, NanoTemper, Germany) was adjusted to a final concentration of 25 nM and used to label the purified protein with a His-tag. The compound was diluted to a series of concentrations in phosphate-buffered saline ([Duan et al., 2023]) with 0.05% Tween 20 (PBS-T) buffer and mixed in a ratio of 1:1 with protein. The mixtures were loaded into capillaries (Monolith™ Series capillaries, NanoTemper) by means of capillary action. Thermophoresis was measured using a Monolith™ NT.115 (NanoTemper) instrument, with 40% excitation and 40% MST power configuration. The time-traces of changes in fluorescence, which reflected the thermophoretic movement of labeled protein affected by different concentrations of compound were recorded, and the dose–response curves were fitted with the ‘temperature jump and thermophoresis’ mode. Data analysis was performed using MO. Affinity Analysis version 2.3 (NanoTemper) and Prism version 8.0.2 (GraphPad Software, United States).
MST quantifies interaction affinities by detecting the direct movement of fluorescent molecules along temperature gradients in capillaries. Ligand binding changes the thermophoretic movement of proteins, which can be used to derive Kds, by sequentially scanning capillaries with different ligand concentrations. MST has been applied to the study of weak binding systems and validated to provide reliable results ([Linke et al., 2016]; [Gao et al., 2021]). […] We also tested the binding abilities of methyl pyruvate analogues to Tlp11-LBD using MST (Supplementary Table S3).

The subject of assay [2] is C. jejuni NCTC 11168ΩTlp11 cells. Type of assay: cell-based, Campylobacter jejuni.
For assay [3], the system named is C. jejuni WT NCTC 11168 cells. Type of assay: cell-based, Campylobacter jejuni.
For assay [4], the system named is C. jejuni 11168ΩTlp11/ΔCheY. Type of assay: cell-based, Campylobacter jejuni.
Assay [5] has as its system Tlp11-LBD. The arrangement: method as in Day et al., 2016. Conditions: ref Day et al., 2016; cited from earlier work.
Another assay has as its system H. pylori. Also noted: method as in Matilla and Krell, 2023; Zhou et al., 2023. Conditions: increase from 25 upon combination with amoxicillin and clarithromycin, clinical studies, ref Matilla and Krell, 2023, Zhou et al.; cited from earlier work.
The test system of a further assay is C. jejuni ATCC 33560. The assay is described as follows: Growth curves in Minimal Essential Medium. Type of assay: cell-based, Campylobacter jejuni. Conditions: Minimal Essential Medium with fetal bovine serum, shaking; methyl pyruvate at concentrations above 1 mM. The method, then:
The C. jejuni ATCC 33560, C. jejuni WT NCTC 11168 and 11168ΩTlp11 cells were grown on a MH agar plate overnight, at 37°C, under microaerobic conditions. The colonies were suspended in PBS ([Duan et al., 2023]), pH 7.2, inoculated into Minimal Essential Medium broth (Life Technologies) containing 10% fetal bovine serum to an initial OD600 of 0.01, and grown at 37°C, 100 rpm, under microaerobic conditions. When required, Minimal Essential Medium was supplemented with different concentrations of methyl pyruvate or pyruvate (both from Macklin, China).

The test system of assay [6] is Tlp11[1-342]-Tar[200-553] (Tlp342Tar200). The assay is described as follows: Microfluidic chemotaxis of E. coli expressing hybrid chemoreceptor Tlp342Tar200. Conditions: for effect on chemotaxis towards methyl pyruvate of E. coli with Tlp342Tar200 / effect on responses to glucose of E. coli with Tlp342Tar200: cells incubated in 10 mM compound; for chemotactic response of E. coli expressing Tlp342Tar200 as the sole receptor: microfluidic device, 50 min. Type of assay: cell-based, E. coli VS188. How it is done:
The E. coli cells expressing hybrid chemoreceptor and GFP were grown in tryptone broth, up to an OD600 of 0.55, at 34°C, with shaking at 250 rpm. The cells were harvested by means of centrifugation at 5,000 rpm, washed twice with Tethering Buffer (10 mM KH2PO4, 10 mM K2HPO4, and 0.1 mM EDTA, pH 7.0), and resuspended in Tethering Buffer such that an OD600 of 5.5 was attained. The chemotactic responses of E. coli cells to the compounds were measured using a microfluidic device ([Si et al., 2012]). The collected E. coli cells were added to the sink pores of the device and allowed to freely diffuse into the observation channel for 40 min. Subsequently, the compound solution was added to the source pores, to establish a concentration gradient gradually in the observation channel of the device. Fluorescence intensity in the observation channel was detected using an LSM 800 laser scanning confocal microscope (Zeiss, Germany). Data were analyzed using ImageJ software.
To determine whether methyl pyruvate stimulates transmembrane signaling through Tlp11-LBD, we fused C. jejuni ATCC 33560 Tlp11-LBD with the cytoplasmic region of the E. coli chemoreceptor Tar to construct Tlp11-Tar hybrid chemoreceptors (Figure 3A). Five hybrid receptors with different fusion positions in the second transmembrane helix (TM2) were obtained: Tlp11[1-342]-Tar[200-553] (Tlp342Tar200), Tlp11[1-343]-Tar[200-553] (Tlp343Tar200), Tlp11[1-346]-Tar[204-553] (Tlp346Tar204), Tlp11[1-347]-Tar[204-553] (Tlp347Tar204), and Tlp11[1-348]-Tar[204-553] (Tlp348Tar204) (Supplementary Figure S5A). To verify the activities of these hybrid chemoreceptors, we expressed each protein as a chimera in green fluorescent protein (GFP)-labeled E. coli VS188 without any other chemoreceptors, such that each hybrid receptor served as the only chemoreceptor in the E. coli. […] These chemotactic responses triggered by glucose through the phosphotransferase system are independent of the chemoreceptor LBD ([Neumann et al., 2012]). […] Thus, we used this hybrid receptor for subsequent chemotaxis measurements.

[7] abbreviates: methyl pyruvate at pH 7.0, read-out: Kd of Tlp11-LBD binding.

Like-named read-outs stand apart in the source and are kept apart here.

As to `CCOC(=O)C(C)=O` [ethyl pyruvate, Ethyl pyruvate], at Tlp11-LBD [1] (read-out: Kd of Tlp11-LBD binding), the Kd (usually the concentration at which binding is half-saturated) amounted to 2360 ± 170 µM.
Consider `O=CO` [formate], for which the values for the chemotactic response entry in assay [2], in assay [3] and in assay [4] were “attractant response”, “attractive response” and “no chemotaxis”, respectively.
As to `O=C[C@H](O)[C@@H](O)[C@@H](O)[C@H](O)CO` [galactose], the “binding to Tlp11-LBD” value in the assay on Tlp11-LBD [5] is on record as “bound directly”.
On to `COc1ccc2[nH]c([S+]([O-])Cc3ncc(C)c(OC)c3C)nc2c1` (centres unmarked) [omeprazole], for which the “eradication rate of H. pylori” value with H. pylori was 95%.
Take `CC(=O)C(=O)O` [pyruvate, Pyruvate]: the “binding to Tlp11-LBD” value with Tlp11-LBD [1] (maximum concentration 2.5 mM) was “did not bind”. Besides, the “effect on growth of C. jejuni ATCC 33560” value in the assay on C. jejuni ATCC 33560 is on record as “promotion of the growth”.
`c1ccc2ncccc2c1` [quinoline, Quinoline]: the Kd at Tlp11-LBD [1] (setting [7]) was determined as 905 ± 180 µM. Also, in assay [2], the chemotactic response entry was “neither WT NCTC 11168 nor 11168ΩTlp11 cells exhibited chemotaxis”. Besides, in assay [3], the chemotactic response entry was “neither WT NCTC 11168 nor 11168ΩTlp11 cells exhibited chemotaxis”. Also, in assay [6], the “effect on chemotaxis towards methyl pyruvate of E. coli with Tlp342Tar200” value was “lost the chemotaxis towards methyl pyruvate”, the “effect on responses to glucose of E. coli with Tlp342Tar200” value is “not affected” and the “chemotactic response of E. coli expressing Tlp342Tar200 as the sole receptor” value is recorded as “failed to elicit a chemotactic response”.
On to `Cc1ccccc1` [toluene, Toluene], for which the Kd on Tlp11-LBD [1] (setting [7]) came out at 844 ± 172 µM. For the same compound, in assay [2] (11168ΩTlp11 cells, microfluidic device, 30 min), the chemotactic response result was “neither WT NCTC 11168 nor 11168ΩTlp11 cells exhibited chemotaxis”. The chemotactic response result in assay [3] (WT NCTC 11168 cells, microfluidic device, 30 min) is reported as “neither WT NCTC 11168 nor 11168ΩTlp11 cells exhibited chemotaxis”. In assay [6], the “effect on chemotaxis towards methyl pyruvate of E. coli with Tlp342Tar200” value was “lost the chemotaxis towards methyl pyruvate”, the “effect on responses to glucose of E. coli with Tlp342Tar200” value is given as “not affected” and the “chemotactic response of E. coli expressing Tlp342Tar200 as the sole receptor” value is “failed to elicit a chemotactic response”.

(Values after paper PMC11111895, “Identification of a dCache-type chemoreceptor in Campylobacter jejuni that specifically mediates chemotaxis towards methyl pyruvate” (Frontiers in Microbiology, 2024).)
